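Growth conditions: 96-well plates. Treatment: test compound, 48 hours, 5 concentrations. Analysis: linear interpolation between bracketing concentrations; unreached endpoints set to highest concentration. At the GI50, growth is halved. Definition used: TGI = concentration required for complete inhibition of growth.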
What was measured:
Assay in all cases: NCI tumour cell line growth inhibition, 48 h
786-0 renal = test system: 786-0 renal
A498 renal = test system: A498 renal
A549 NSCLC = test system: A549 NSCLC
ACHN renal = test system: ACHN renal
BT-549 breast = test system: BT-549 breast
CAKI-1 renal = test system: CAKI-1 renal
CCRF-CEM leukemia = test system: CCRF-CEM leukemia
COLO 205 colon = test system: COLO 205 colon
DU-145 prostate = test system: DU-145 prostate
EKVX NSCLC = test system: EKVX NSCLC
HCC-2998 colon = test system: HCC-2998 colon
HCT-116 colon = test system: HCT-116 colon
HCT-15 colon = test system: HCT-15 colon
HL-60(TB) leukemia = test system: HL-60(TB) leukemia
HOP-62 NSCLC = test system: HOP-62 NSCLC
HOP-92 NSCLC = test system: HOP-92 NSCLC
HS 578T breast = test system: HS 578T breast
HT29 colon = test system: HT29 colon
IGROV1 ovarian = test system: IGROV1 ovarian
K-562 leukemia = test system: K-562 leukemia
KM12 colon = test system: KM12 colon
LOX IMVI melanoma = test system: LOX IMVI melanoma
M14 melanoma = test system: M14 melanoma
MALME-3M melanoma = test system: MALME-3M melanoma
MCF7 breast = test system: MCF7 breast
MDA-MB-231 breast = test system: MDA-MB-231 breast
MDA-MB-435 = test system: MDA-MB-435
MDA-MB-468 breast = test system: MDA-MB-468 breast
MOLT-4 leukemia = test system: MOLT-4 leukemia
NCI-H226 lung = test system: NCI-H226 lung

CN(C)CCNC(=O)OCCCCOc1cc(O)c2c(=O)cc(-c3ccccc3)oc2c1
GI50 (786-0 renal): 2 µM | TGI (786-0 renal): 4.72 µM | GI50 (A498 renal): 2.21 µM | TGI (A498 renal): 5.77 µM | GI50 (A549 NSCLC): 5.26 µM | TGI (A549 NSCLC): 19.3 µM | GI50 (ACHN renal): 1.92 µM | TGI (ACHN renal): 3.97 µM | GI50 (BT-549 breast): 10.6 µM | TGI (BT-549 breast): 22.7 µM | GI50 (CAKI-1 renal): 3.04 µM | TGI (CAKI-1 renal): 12.2 µM | GI50 (CCRF-CEM leukemia): 3.21 µM | TGI (CCRF-CEM leukemia): 10.7 µM | GI50 (COLO 205 colon): 1.84 µM | TGI (COLO 205 colon): 3.5 µM | GI50 (DU-145 prostate): 3.73 µM | TGI (DU-145 prostate): 13.9 µM | GI50 (EKVX NSCLC): 7.87 µM | TGI (EKVX NSCLC): 20.2 µM | GI50 (HCC-2998 colon): 3.25 µM | TGI (HCC-2998 colon): 10.3 µM | GI50 (HCT-116 colon): 2.01 µM | TGI (HCT-116 colon): 4.85 µM | GI50 (HCT-15 colon): 2.25 µM | TGI (HCT-15 colon): 5.8 µM | GI50 (HL-60(TB) leukemia): 1.64 µM | TGI (HL-60(TB) leukemia): 3.59 µM | GI50 (HOP-62 NSCLC): 10.4 µM | TGI (HOP-62 NSCLC): 24.4 µM | GI50 (HOP-92 NSCLC): 4.35 µM | TGI (HOP-92 NSCLC): 19.1 µM | GI50 (HS 578T breast): 4.35 µM | TGI (HS 578T breast): 23.4 µM | GI50 (HT29 colon): 1.88 µM | TGI (HT29 colon): 3.98 µM | GI50 (IGROV1 ovarian): 15.7 µM | TGI (IGROV1 ovarian): 29.6 µM | GI50 (K-562 leukemia): 1.96 µM | TGI (K-562 leukemia): 5.98 µM | GI50 (KM12 colon): 6.09 µM | TGI (KM12 colon): 20.4 µM | GI50 (LOX IMVI melanoma): 1.79 µM | TGI (LOX IMVI melanoma): 3.25 µM | GI50 (M14 melanoma): 1.89 µM | TGI (M14 melanoma): 3.78 µM | GI50 (MALME-3M melanoma): 1.57 µM | TGI (MALME-3M melanoma): 2.97 µM | GI50 (MCF7 breast): 1.59 µM | TGI (MCF7 breast): 3.76 µM | GI50 (MDA-MB-231 breast): 1.74 µM | TGI (MDA-MB-231 breast): 3.78 µM | GI50 (MDA-MB-435): 2.12 µM | TGI (MDA-MB-435): 4.66 µM | GI50 (MDA-MB-468 breast): 1.78 µM | TGI (MDA-MB-468 breast): 4.16 µM | GI50 (MOLT-4 leukemia): 2.25 µM | TGI (MOLT-4 leukemia): 6.24 µM | GI50 (NCI-H226 lung): 10.1 µM

Source: PubChem BioAssay (NCI)
